B1: AlbB expressed alone (His tag removed) (natural protein, Streptomyces noursei)
chain: MNPGETVLPPQLREEIALLAVYLLSSGRGLLEEPADYGIYRCTDGARRALQLLDEHGGSTARLTAVRERLDEVMFAPMGEDRDMGAILDDLCRQMADALPEIETP
notes: AlbB, Streptomyces noursei; gene PCR-amplified from the AlbAB-encoding pGM1190 vector into pETDuet-1 multiple cloning site 2, with a TEV site to remove the tag; also called His-tagged AlbB; source: E. coli BL21 (DE3), pETDuet-1, purified (His-Trap, TEV cleavage, second His-Trap); not shown: His tag, N-terminal, cleaved

Legend:
[1] = target: T1, AlbAB (Streptomyces noursei, UniProt Q8GED8+Q8GED9, Q8GED9:S77A); assay: coupled horseradish peroxidase H2O2 fluorescence assay, Michaelis-Menten fit; format: biochemical; conditions: 100 mM Tris pH 8.0, 30 °C, O2, 1 mM 4-hydroxyphenylacetic acid, 0.1 U HRP, 0.25 µM AlbAB
T1 construct: gene albA; AlbA ca. 21 kDa, AlbB ca. 11 kDa; filament of alternating AlbA2 and AlbB2 dimers; FMN covalent at AlbA C115
T1 sequence (Q8GED9 24-219 S77A, one chain of several): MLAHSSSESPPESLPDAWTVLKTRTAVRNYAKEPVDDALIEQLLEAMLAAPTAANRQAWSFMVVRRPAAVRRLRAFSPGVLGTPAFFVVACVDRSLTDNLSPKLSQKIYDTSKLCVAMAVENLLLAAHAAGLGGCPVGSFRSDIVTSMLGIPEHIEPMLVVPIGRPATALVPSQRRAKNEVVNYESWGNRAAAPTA

[2] = target: the molecule itself; assay: SEC + other: dynamic light scattering; DLS at 25 °C, AlbAB 0.1 mg/mL and AlbB 1 mg/mL in 150 mM NaCl, 20 mM Tris pH 7.5; size exclusion chromatography

Row | Molecule | KM [1] | stoichiometry N [2]
1 | CC(C)C[C@@H]1NC(=O)[C@H](Cc2ccccc2)NC1=O [cyclo(L-Phe-L-Leu)] | velocities for AlbAB and AlbA-S54A/AlbB were then fit to a Michaelis-Menton non-linear regression model | 
2 | B1 |  | 2

From publication PMC11055893, “Cyclodipeptide oxidase is an enzyme filament” (Nature Communications, 2024)
